“Also recorded” adds a separate entry of the source.
Assays:
Krit1^ECKO BMEC [1] = assay: ZO-1 tight junction staining in BMEC after Krit1 inactivation (immunofluorescence); type: cell-based, mouse
Method: (§1) BMEC at passages 1-3 were maintained at 37° C. in 95% air and 5% CO2 and were grown to 85% confluence and treated for 48 h with 5 μM 4-hydroxy-tamoxifen (Sigma, H7904) after which the medium was replaced with medium lacking 4-hydroxy-tamoxifen and cells were harvested after 72 hr in culture. For TSP1 and 3TSR addition experiments, after 24 h in regular medium, the 5 nM mrTSP1 (R&D systems, 7859-TH), 20 nM 3TSR, or vehicle were added. After 48 hr a second dose of TSP1, 3TSR, or vehicle were added and cells were harvested after an additional 24 h (FIG. 11a-11d).
BMEC were grown to confluence on collagen coated cover glass (Fisher Scientific, 12-545-81) and cells were fixed for 10 min at room temperature with 4% paraformaldehyde (PFA) in phosphate-buffered saline (PBS; pH 7.4) and then permeabilized with 0.5% Triton X-100 in PBS for 5 min. […]
The slides were viewed with a high-resolution SP5 confocal microscope (Leica Microsystems) and the images were captured with Leica application suite (LAS) software (Leica Microsystems). […] The quantification analysis was performed using Volocity® software on high-resolution confocal images.

Krit1^ECKO BMEC [2] = assay: KLF2 and KLF4 mRNA in Krit1^ECKO BMEC (RT-qPCR); type: cell-based, mouse; conditions: in vitro, FIG. 5d
Method: as §1
Primary BMEC, human umbilical vein endothelial cells (HUVEC) and freshly isolated brain microvasculature total RNA were isolated using Trizol reagent, according to the manufacturer's protocol (ThermoFisher). For gene expression analysis, single stranded cDNA was produced from 10 ng of total RNA of BMEC using SuperScript III First-Strand synthesis and random primers according to the manufacture's protocol (ThermoFisher). KAPPA SyberFast qPCR kit (Kapa Biosystems) and thermal cycler (CFX96 Real-Time System, Bio-Rad) were used to determine the relative levels of the genes analyzed (primer sequences not shown) according to the manufacturer's protocol. Actin mRNA levels were used as an internal control and the 2^−ΔΔCT method was used for analysis of the data. […]

With “TSP1: mouse recombinant full length thrombospondin 1 (R&D systems, 7859-TH), a large (~450 kDa) glycoprotein” the “ZO-1 at BMEC tight junctions following Krit1 inactivation” value (Krit1^ECKO BMEC [1]; 5 nM mouse recombinant TSP1, Krit1^ECKO BMEC, FIG. 3a) was “continuous ZO1 junctional staining; also recorded: prevented the loss of ZO-1 from BMEC tight junctions” and the “rise in KLF2 or KLF4 mRNA following Krit1 inactivation” value (Krit1^ECKO BMEC [2]) was “Neither TSP1 nor 3TSR prevented”.
`Cc1cc(C)c(/C=C2\C(=O)Nc3ccccc32)[nH]1` [SU5416, reference compound] was tested, and the “ZO1 junctional staining following Krit1 inactivation” value (Krit1^ECKO BMEC [1]; 2 μM SU5416, Krit1^ECKO BMEC, FIG. 13c) was “continuous ZO1 junctional staining”.

— US20190111111A1, “Treatment of Cerebral Cavernous Malformations” (The Regents of the University of California, priority 2016, published 2019)
